Test results taken from patent US20240287046A1, “COMPOUNDS AND RADIOLIGANDS FOR TARGETING NEUROTENSIN RECEPTOR AND USES THEREOF” (Full-Life Technologies HK Limited, priority 2022, published 2024).

Tested on: HT-29 tumor-bearing mice
Assay: Biodistribution of radionuclide labeled complexes in HT-29 tumor-bearing mice
Format: in vivo, BALB/c nude mice
Protocol: The BALB/c nude mice (Charles River, Beijing) were utilized to establish the xenografted model for biodistribution study. All animal care and experimental procedure were performed by following the animal protocols approved by the ethics committee of China Institute of Radiation Protection.
Briefly, each mouse was inoculated with approximately 4×10^6 ASPC-1 cells (human pancreatic cancer cell line) or HT-29 cells (human colorectal adenocarcinoma cell line) expressing human NTSR-1 by subcutaneous injection at rear flank. After inoculation, the xenografted tumors were allowed to grow for ˜2-4 weeks till the tumor weight reached to about 0.05 to 0.50 g (0.20 g in average).
Biodistribution studies were performed by administrating the radionuclide labeled test compound at a dose of ˜30-50 μCi (100 μL in 0.9% NaCl, ˜1.11-1.85 MBq, with specific activity 30-250 μCi/nmol) to each animal through tail vein injection.
At different time points after the administration, the mice treated with each compound were euthanized. The tissues and organs of the animals in each group were collected, excised, weighed, and analyzed in a PerkinElmer 2480 WIZARD2γ counter, and the percent injected dose (% ID) and % ID/g of each organ or tissue were calculated.

% ID/g (1 h) Blood (Blood, 1 h): 16.51 ± 0.56 % ID/g
% ID/g (4 h) Blood (Blood, 4 h): 2.85 ± 1.23 % ID/g
% ID/g (24 h) Blood (Blood, 24 h): 0.06 ± 0.02 % ID/g
% ID/g (72 h) Blood (Blood, 72 h): 0.03 ± 0 % ID/g
% ID/g (120 h) Blood (Blood, 120 h): 0.01 ± 0 % ID/g
% ID/g (1 h) Femur (Femur, 1 h): 1.95 ± 1.15 % ID/g
% ID/g (4 h) Femur (Femur, 4 h): 0.56 ± 0.23 % ID/g
% ID/g (24 h) Femur (Femur, 24 h): 0.11 ± 0.02 % ID/g
% ID/g (72 h) Femur (Femur, 72 h): 0.06 ± 0.03 % ID/g
% ID/g (120 h) Femur (Femur, 120 h): 0.07 ± 0.02 % ID/g
% ID/g (1 h) Heart (Heart, 1 h): 5.28 ± 0.74 % ID/g
% ID/g (4 h) Heart (Heart, 4 h): 1.31 ± 0.53 % ID/g
% ID/g (24 h) Heart (Heart, 24 h): 0.16 ± 0.01 % ID/g
% ID/g (72 h) Heart (Heart, 72 h): 0.11 ± 0.01 % ID/g
% ID/g (120 h) Heart (Heart, 120 h): 0.05 ± 0.03 % ID/g
% ID/g (1 h) Intestine (Intestine, 1 h): 2.84 ± 1.07 % ID/g
% ID/g (4 h) Intestine (Intestine, 4 h): 1.71 ± 0.23 % ID/g
% ID/g (24 h) Intestine (Intestine, 24 h): 0.66 ± 0.29 % ID/g
% ID/g (72 h) Intestine (Intestine, 72 h): 0.29 ± 0.23 % ID/g
% ID/g (120 h) Intestine (Intestine, 120 h): 0.19 ± 0.01 % ID/g
% ID/g (1 h) Kidney (Kidney, 1 h): 4.41 ± 2.41 % ID/g
% ID/g (4 h) Kidney (Kidney, 4 h): 1.73 ± 0.79 % ID/g
% ID/g (24 h) Kidney (Kidney, 24 h): 1.43 ± 1.04 % ID/g
% ID/g (72 h) Kidney (Kidney, 72 h): 0.7 ± 0.3 % ID/g
% ID/g (120 h) Kidney (Kidney, 120 h): 0.4 ± 0.15 % ID/g
% ID/g (1 h) Liver (Liver, 1 h): 4.35 ± 1.78 % ID/g
% ID/g (4 h) Liver (Liver, 4 h): 2.59 ± 1.08 % ID/g
% ID/g (24 h) Liver (Liver, 24 h): 0.85 ± 0.38 % ID/g
% ID/g (72 h) Liver (Liver, 72 h): 0.57 ± 0.21 % ID/g
% ID/g (120 h) Liver (Liver, 120 h): 0.24 ± 0.04 % ID/g
% ID/g (1 h) Lung (Lung, 1 h): 4.47 ± 3.31 % ID/g
% ID/g (4 h) Lung (Lung, 4 h): 1.81 ± 0.77 % ID/g
% ID/g (24 h) Lung (Lung, 24 h): 0.35 ± 0.14 % ID/g
% ID/g (72 h) Lung (Lung, 72 h): 0.23 ± 0.01 % ID/g
% ID/g (120 h) Lung (Lung, 120 h): 0.07 ± 0.02 % ID/g
% ID/g (1 h) Muscle (Muscle, 1 h): 2.2 ± 1.08 % ID/g
% ID/g (4 h) Muscle (Muscle, 4 h): 0.44 ± 0.26 % ID/g
% ID/g (24 h) Muscle (Muscle, 24 h): 0.05 ± 0.03 % ID/g
% ID/g (72 h) Muscle (Muscle, 72 h): 0.03 ± 0.01 % ID/g
% ID/g (120 h) Muscle (Muscle, 120 h): 0.04 ± 0.02 % ID/g
% ID/g (1 h) Pancreas (Pancreas, 1 h): 1.48 ± 0.29 % ID/g
% ID/g (4 h) Pancreas (Pancreas, 4 h): 0.38 ± 0.17 % ID/g
% ID/g (24 h) Pancreas (Pancreas, 24 h): 0.07 ± 0.04 % ID/g
% ID/g (72 h) Pancreas (Pancreas, 72 h): 0.03 ± 0.01 % ID/g
% ID/g (120 h) Pancreas (Pancreas, 120 h): 0.04 ± 0.01 % ID/g
% ID/g (1 h) Spleen (Spleen, 1 h): 1.73 ± 1.08 % ID/g
% ID/g (4 h) Spleen (Spleen, 4 h): 0.71 ± 0.41 % ID/g
% ID/g (24 h) Spleen (Spleen, 24 h): 0.14 ± 0.03 % ID/g
% ID/g (72 h) Spleen (Spleen, 72 h): 0.08 ± 0.01 % ID/g
% ID/g (120 h) Spleen (Spleen, 120 h): 0.1 ± 0.04 % ID/g
% ID/g (1 h) Stomach (Stomach, 1 h): 2.58 ± 1.00 % ID/g
% ID/g (4 h) Stomach (Stomach, 4 h): 0.76 ± 0.38 % ID/g
% ID/g (24 h) Stomach (Stomach, 24 h): 0.14 ± 0.03 % ID/g
% ID/g (72 h) Stomach (Stomach, 72 h): 0.06 ± 0.01 % ID/g
% ID/g (120 h) Stomach (Stomach, 120 h): 0.061 ± 0.03 % ID/g
% ID/g (1 h) Tumor (Tumor, 1 h): 17.04 ± 5.68 % ID/g
Compound: COc1cccc(OC)c1-c1cc(C(=O)NC2(C(=O)O)C3CC4CC(C3)CC2C4)nn1-c1ccc(OCCCN(C)CCCN(C)C(=O)CN2CCN(CC(=O)[O-])CCN(CC(=O)[O-])CCN(CC(=O)[O-])CC2)cc1C(C)C.[177Lu+3] (centres unmarked) [^177Lu-I-7]
